From patent US8476265B2, “Compounds-801” (AstraZeneca AB, priority 2010, dated 2013) come the findings set out here.

Assay [1] deals with T1, human muscarinic acetylcholine M3 receptor (Homo sapiens, UniProt P20309).
T1 construct: expressed in transfected cells; host or cells: CHO-K1 (Chinese Hamster Ovary) cell membranes
Nature of the assay: Muscarinic 3 receptor binding assay ([3H]NMS competition, SPA), pIC50. The following applies: [3H]NMS 0.1 nM, CHO-K1 cell membranes expressing human M3 receptor. Summed up:
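Competition of [3H]NMS (0.1 nM, quarter Kd) binding to CHO-K1 membranes expressing human M3, SPA format, in 20 mM HEPES pH 7.4, 5 mM MgCl2, 0.1% BSA, 1% DMSO. Incubated 16 h at room temperature; non-specific binding with 1 μM atropine; pIC50 from specific binding.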

For assay [2], the target named is T2, Adrenergic β2 (Homo sapiens, UniProt P07550).
T2 construct: Adherent H292 cells are removed from tissue culture flasks by treatment with Accutase™ cell detachment solution; endogenous in cells; host or cells: H292 cells
T2 sequence (P07550 whole entry): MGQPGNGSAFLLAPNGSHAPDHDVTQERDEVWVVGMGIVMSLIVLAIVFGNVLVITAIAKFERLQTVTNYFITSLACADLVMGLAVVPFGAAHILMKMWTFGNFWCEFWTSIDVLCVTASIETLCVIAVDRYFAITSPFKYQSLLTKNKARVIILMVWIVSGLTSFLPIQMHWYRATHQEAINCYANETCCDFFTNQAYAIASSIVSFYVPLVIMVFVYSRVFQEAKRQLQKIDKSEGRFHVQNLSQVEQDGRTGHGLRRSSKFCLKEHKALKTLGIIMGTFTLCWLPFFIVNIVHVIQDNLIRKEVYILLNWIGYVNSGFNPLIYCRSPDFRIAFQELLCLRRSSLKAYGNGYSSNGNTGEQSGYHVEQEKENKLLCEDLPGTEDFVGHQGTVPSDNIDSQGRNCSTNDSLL
Nature of the assay: Adrenergic β2 mediated cAMP production in H292 cells (AlphaScreen), concentration response. Conditions: for EC50: 60 min, 300 μM rolipram, read-out: β2 pEC50 (converted); for β2 Intrinsic Activity: fraction relative to the maximum activity determined for formoterol. The class given is cell-based. Summed up: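 H292 cells seeded overnight, pretreated 10 min with rolipram (300 μM final), then exposed to compounds 60 min at room temperature in HBSS/10 mM HEPES pH 7.4/5 mM glucose, 1% DMSO. Lysate cAMP quantified by AlphaScreen against a standard curve; four-parameter fit gives pEC50 and intrinsic activity relative to formoterol maximum.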
(In general: Changes in cAMP serve as a functional read-out for many G protein-coupled receptors.)

As usually defined, the IC50 is the concentration at which inhibition is half-maximal. The low end stands for higher potency, the high end for lower potency.

Counter-ions that a name gives are not always drawn.

T1 sequence (P20309 whole entry): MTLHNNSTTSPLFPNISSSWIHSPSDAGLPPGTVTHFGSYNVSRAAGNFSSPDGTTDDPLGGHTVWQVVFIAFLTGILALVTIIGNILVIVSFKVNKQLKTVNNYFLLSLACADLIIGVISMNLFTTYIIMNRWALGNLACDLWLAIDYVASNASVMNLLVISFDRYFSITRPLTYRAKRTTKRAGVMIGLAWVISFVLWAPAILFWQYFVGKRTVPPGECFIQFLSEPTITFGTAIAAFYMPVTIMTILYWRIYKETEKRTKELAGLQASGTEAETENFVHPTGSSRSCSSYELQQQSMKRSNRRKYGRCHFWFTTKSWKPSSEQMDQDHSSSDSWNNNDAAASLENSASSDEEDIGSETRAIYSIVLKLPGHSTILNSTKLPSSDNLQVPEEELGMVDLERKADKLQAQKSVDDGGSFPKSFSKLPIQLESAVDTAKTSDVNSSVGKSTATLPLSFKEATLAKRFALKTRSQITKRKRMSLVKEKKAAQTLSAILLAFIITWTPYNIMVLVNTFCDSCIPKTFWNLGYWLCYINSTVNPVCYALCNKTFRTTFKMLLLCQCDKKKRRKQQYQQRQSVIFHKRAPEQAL

As to `Cc1cc(C(=O)N2CCOC3(CCN(Cc4cccc(CCOCCC(=O)N(CCNCCc5ccc(O)c6c5OCC(=O)N6)C5CCCCC5)c4)CC3)C2)sc1C` [Example 89, N-Cyclohexyl-3-(3-((4-(4,5-dimethylthiophene-2-carbonyl)-1-oxa-4,9-diazaspiro[5.5]undecan-9-yl)methyl)phenethoxy)-N-(2-(2-(5-hydroxy-3-oxo-3,4-dihydro-2H-benzo[b][1,4]oxazin-8-yl)ethylamino)ethyl)propanamide], the IC50 in assay [1] is 5.01 nM. In assay [2], the EC50 was 200 nM and the “β2 Intrinsic Activity” value is listed as 1.0.

`CC(C)c1ccc(C(=O)N2CCOC3(CCN(Cc4cccc(CCOCCC(=O)N(CCNCCc5ccc(O)c6c5OCC(=O)N6)C5CCCCC5)c4)CC3)C2)s1` [Example 90, N-Cyclohexyl-N-(2-(2-(5-hydroxy-3-oxo-3,4-dihydro-2H-benzo[b][1,4]oxazin-8-yl)ethylamino)ethyl)-3-(3-((4-(5-isopropylthiophene-2-carbonyl)-1-oxa-4,9-diazaspiro[5.5]undecan-9-yl)methyl)phenethoxy)propanamide]: the IC50 in assay [1] was 0.501 nM. In addition, in assay [2], the EC50 was 251 nM and the “β2 Intrinsic Activity” value is 1.0.

Turning to `O=C1COc2c(CCNCCN(C(=O)CCOCCc3cccc(CN4CCC5(CC4)CN(C(=O)c4cc6ccccc6s4)CCO5)c3)C3CCCCC3)ccc(O)c2N1` [Example 81, 3-(3-((4-(Benzo[b]thiophene-2-carbonyl)-1-oxa-4,9-diazaspiro[5.5]undecan-9-yl)methyl)phenethoxy)-N-cyclohexyl-N-(2-(2-(5-hydroxy-3-oxo-3,4-dihydro-2H-benzo[b][1,4]oxazin-8-yl)ethylamino)ethyl)propanamide], the IC50 in assay [1] was 3.98 nM. For the same molecule, in assay [2], the EC50 was 251 nM and the “β2 Intrinsic Activity” value amounted to 0.9.

`CC(C)c1csc(C(=O)N2CCOC3(CCN(Cc4cccc(CCOCCC(=O)N(CCNCCc5ccc(O)c6c5OCC(=O)N6)C5CCCCC5)c4)CC3)C2)c1` [Example 98, N-Cyclohexyl-N-(2-(2-(5-hydroxy-3-oxo-3,4-dihydro-2H-benzo[b][1,4]oxazin-8-yl)ethylamino)ethyl)-3-(3-((4-(4-isopropylthiophene-2-carbonyl)-1-oxa-4,9-diazaspiro[5.5]undecan-9-yl)methyl)phenethoxy)propanamide]: the IC50 in assay [1] was 0.794 nM. Further, in assay [2], the EC50 is 200 nM and the “β2 Intrinsic Activity” value is recorded as 1.1.

In turn, `CCN(CCNCCc1ccc(O)c2c1OCC(=O)N2)C(=O)CCOCCc1cccc(CN2CCC3(CC2)CN(C(=O)c2csc(C(C)C)n2)CCO3)c1F` [Example 15, N-Ethyl-3-(2-fluoro-3-((4-(2-isopropylthiazole-4-carbonyl)-1-oxa-4,9-diazaspiro[5.5]undecan-9-yl)methyl)phenethoxy)-N-(2-(2-(5-hydroxy-3-oxo-3,4-dihydro-2H-benzo[b][1,4]oxazin-8-yl)ethylamino)ethyl)propanamide ditrifluoroacetate] gave an IC50 in assay [1] of 0.398 nM. In assay [2], the EC50 was 31.6 nM and the “β2 Intrinsic Activity” value is listed as 0.7.

In assay [1], `CC(C)c1nc(C(=O)N2CCOC3(CCN(Cc4cccc(CCOCCC(=O)N(CCNCCc5ccc(O)c6c5OCC(=O)N6)CC(F)F)c4F)CC3)C2)cs1` [Example 73, N-(2,2-Difluoroethyl)-3-(2-fluoro-3-((4-(2-isopropylthiazole-4-carbonyl)-1-oxa-4,9-diazaspiro[5.5]undecan-9-yl)methyl)phenethoxy)-N-(2-(2-(5-hydroxy-3-oxo-3,4-dihydro-2H-benzo[b][1,4]oxazin-8-yl)ethylamino)ethyl)propanamide ditrifluoroacetate] showed an IC50 of 0.1 nM. In addition, in assay [2], the EC50 is 25.1 nM and the “β2 Intrinsic Activity” value is reported as 1.1.

Molecule `CCN(CCNCCc1ccc(O)c2[nH]c(=O)sc12)C(=O)CCOCCc1cc(CCN2CCC3(CC2)CN(C(=O)c2csc(C(C)C)n2)CCO3)cs1` [Example 78, N-Ethyl-N-(2-(2-(4-hydroxy-2-oxo-2,3-dihydrobenzo[d]thiazol-7-yl)ethylamino)ethyl)-3-(2-(4-(2-(4-(2-isopropylthiazole-4-carbonyl)-1-oxa-4,9-diazaspiro[5.5]undecan-9-yl)ethyl)thiophen-2-yl)ethoxy)propanamide ditrifluoroacetate] showed an IC50 in assay [1] of 2.51 nM. For the same molecule, in assay [2], the EC50 was 12.6 nM and the “β2 Intrinsic Activity” value is 1.0.

In assay [1], `CCc1nc(C(=O)N2CCOC3(CCN(Cc4cccc(CCOCCC(=O)N(CC)CCNCCc5ccc(O)c6c5OCC(=O)N6)c4Cl)CC3)C2)cs1` [Example 30, 3-(2-Chloro-3-((4-(2-ethylthiazole-4-carbonyl)-1-oxa-4,9-diazaspiro[5.5]undecan-9-yl)methyl)phenethoxy)-N-ethyl-N-(2-(2-(5-hydroxy-3-oxo-3,4-dihydro-2H-benzo[b][1,4]oxazin-8-yl)ethylamino)ethyl)propanamide ditrifluoroacetate] gave an IC50 of 0.316 nM. Also, in assay [2], the EC50 is 7.94 nM and the “β2 Intrinsic Activity” value was 0.8.

Molecule `CCN(CCNCCc1ccc(O)c2[nH]c(=O)sc12)C(=O)CCOCCCc1cccc(CN2CCC3(CC2)CN(C(=O)c2csc(C(C)C)n2)CCO3)c1F` [Example 66, N-Ethyl-3-(3-(2-fluoro-3-((4-(2-isopropylthiazole-4-carbonyl)-1-oxa-4,9-diazaspiro[5.5]undecan-9-yl)methyl)phenyl)propoxy)-N-(2-(2-(4-hydroxy-2-oxo-2,3-dihydrobenzo[d]thiazol-7-yl)ethylamino)ethyl)propanamide ditrifluoroacetate] had an IC50 in assay [1] of 0.501 nM. Also, in assay [2], the EC50 was 251 nM and the “β2 Intrinsic Activity” value was 0.5.

`CCN(CCNCCc1ccc(O)c2c1OCC(=O)N2)C(=O)CCOCCc1cccc(CCN2CC3(C2)CN(C(=O)c2csc(C(C)C)n2)CCO3)c1` [Example 177, N-ethyl-N-(2-(2-(5-hydroxy-3-oxo-3,4-dihydro-2H-benzo[b][1,4]oxazin-8-yl)ethylamino)ethyl)-3-(3-(2-(8-(2-isopropylthiazole-4-carbonyl)-5-oxa-2,8-diazaspiro[3.5]nonan-2-yl)ethyl)phenethoxy)propanamide, trifluoroacetate salt] had an IC50 in assay [1] of 1.26 nM. For the same molecule, in assay [2], the EC50 was 10 nM and the “β2 Intrinsic Activity” value was determined as 1.1.

Take `CCCCN(CCNCCc1ccc(O)c2c1OCC(=O)N2)C(=O)CCOCCc1cccc(CCN2CCC3(CC2)CN(C(=O)c2csc(C(C)C)n2)CCO3)c1` [Example 34, N-Butyl-N-(2-(2-(5-hydroxy-3-oxo-3,4-dihydro-2H-benzo[b][1,4]oxazin-8-yl)ethylamino)ethyl)-3-(3-(2-(4-(2-isopropylthiazole-4-carbonyl)-1-oxa-4,9-diazaspiro[5.5]undecan-9-yl)ethyl)phenethoxy)propanamide ditrifluoroacetate]: the IC50 in assay [1] was 1 nM. Moreover, in assay [2], the EC50 was 10 nM and the “β2 Intrinsic Activity” value worked out at 1.0.

Turning to `CCC(CC)c1nc(C(=O)N2CCOC3(CCN(Cc4cccc(CCOCCC(=O)N(CC)CCNCCc5ccc(O)c6c5OCC(=O)N6)c4F)CC3)C2)cs1` [Example 9, N-Ethyl-3-(2-fluoro-3-((4-(2-(pentan-3-yl)thiazole-4-carbonyl)-1-oxa-4,9-diazaspiro[5.5]undecan-9-yl)methyl)phenethoxy)-N-(2-(2-(5-hydroxy-3-oxo-3,4-dihydro-2H-benzo[b][1,4]oxazin-8-yl)ethylamino)ethyl)propanamide ditrifluoroacetate], the IC50 in assay [1] was 0.501 nM. In addition, in assay [2], the EC50 is 31.6 nM and the “β2 Intrinsic Activity” value is 0.8.

The molecule `COCCN(CCNCCc1ccc(O)c2c1OCC(=O)N2)C(=O)CCOCCc1cccc(CN2CCC3(CC2)CN(C(=O)c2csc(C(C)C)n2)CCO3)c1Cl` [Example 70, 3-(2-Chloro-3-((4-(2-isopropylthiazole-4-carbonyl)-1-oxa-4,9-diazaspiro[5.5]undecan-9-yl)methyl)phenethoxy)-N-(2-(2-(5-hydroxy-3-oxo-3,4-dihydro-2H-benzo[b][1,4]oxazin-8-yl)ethylamino)ethyl)-N-(2-methoxyethyl)propanamide ditrifluoroacetate] showed a half-maximal inhibitory concentration (IC50) in assay [1] of 0.126 nM. Besides, in assay [2], the EC50 is 50.1 nM and the “β2 Intrinsic Activity” value is listed as 1.0.

With `CC(C)c1nc(C(=O)N2CCOC3(CCN(Cc4cccc(CCOCCC(=O)N(CCNCCc5ccc(O)c6c5OCC(=O)N6)CC(F)(F)F)c4F)CC3)C2)cs1` [Example 79, ditrifluoroacetate], the IC50 in assay [1] was 0.126 nM. Also, in assay [2], the EC50 was 126 nM and the “β2 Intrinsic Activity” value amounted to 1.0.

Molecule `Cc1ccc(CN(CCNCCc2ccc(O)c3c2OCC(=O)N3)C(=O)CCOCCc2cccc(CN3CCC4(CC3)CN(C(=O)c3csc(C(C)C)n3)CCO4)c2F)cc1` [Example 22, 3-(2-Fluoro-3-(4-(2-isopropylthiazole-4-carbonyl)-1-oxa-4,9-diazaspiro[5.5]undecan-9-yl)methyl)phenethoxy)-N-(2-(2-(5-hydroxy-3-oxo-3,4-dihydro-2H-benzo[b][1,4]oxazin-8-yl)ethylamino)ethyl)-N-(4-methylbenzyl)propanamide ditrifluoroacetate] showed an IC50 in assay [1] of 0.251 nM. In addition, in assay [2], the EC50 was 79.4 nM and the “β2 Intrinsic Activity” value was found to be 1.2.
